Test results: US10865257B2, “Production methods for aqueous emulsion, fine powder and stretched porous body of modified polytetrafluoroethylene” (AGC Inc., priority 2015, dated 2020)

Experiment: LogPOW, distribution coefficient in 1-octanol and water (OECD Test Guideline 107, 117; JIS Z7260-107)
Assay type: physicochemical
Settings: 1-octanol/water (1:1) distribution coefficient
Source text: In the present invention, a fluorinated anionic surfactant having a LogPOW of from 2.4 to 3.4 is used. The LogPOW is a distribution coefficient in 1-octanol and water as stipulated in OECD Test Guideline 107, 117 and Japanese Industrial Standard Z7260-107 (2000).
At the time when a mixed liquid of octanol/water (1:1) each containing a surfactant to be measured, is phase-separated, POW represents a ratio of the surfactant concentration in octanol/the surfactant concentration in water. A surfactant having a large distribution coefficient value has a high bioaccumulation property, and a surfactant having a small distribution coefficient value has a low bioaccumulation property. When the LogPOW is 3.4 or less, the bioaccumulation property is judged to be low. By the measurement conducted by the present inventors, the LogPOW of APFO was 3.67.

SMILES	logP
O=C(O)C(F)(F)OC(F)(F)C(F)(F)OC(F)(F)C(F)(F)F [APFDO, ammonium perfluoro-3,6-dioxaoctanoate]	3.1
O=C(O)C(F)(F)C(F)(F)C(F)(F)C(F)(F)C(F)(F)C(F)(F)C(F)(F)F [APFO, ammonium perfluorooctanoate]	3.67
